Laboratory results taken from patent US10485773B2, “Benzenesulfonamide derivatives and method for treating cancer” (GONGWIN BIOPHARM HOLDINGS CO., LTD., priority 2016, dated 2019).
Converted amounts (≈) assume the structure as drawn. Read-outs that look alike come from different tables or passages of the source.

What was measured:
[1] = system: human non-small-cell lung cancer cell lines H460; experiment: SRB growth inhibition of lung cancer cells; assay type: cell-based; conditions: 48 hours, SRB
Procedure: (§1) After letting to stand for 10 minutes at room temperature, the supernatant of each well was removed, and each well was washed with 200 μL H2O once. […] Each of the plates was then placed in the laminar flow cabinet for 1 hour for air dry. 50 μL 0.4% sulforhodamine B (SRB) dye was added into each well of the 96-well plate. […] Each of the plates was then placed in the laminar flow cabinet for 40 minutes to 1 hour for air dry. 1×Tris-Base solution with pH 7.0 to 7.4 was added to each well of the 96-well plate to dissolve the protein complex formed in the bottom of each well, followed by tapping the 96-well plate, allowing the complex in each well to be dissolved uniformly. Absorption of each well under 515 nm was read. […] Each of the experimental group was performed in triplet.

[2] = system: human liver cancer cell lines Hep3B; experiment: SRB growth inhibition of liver cancer cells; assay type: cell-based; conditions: 48 hours, SRB
Procedure: as §1

[3] = first dissolution test in DMSO or water; conditions: for Total volume of DMSO for dissolving the p-TSA derivatives / Total volume of water for dissolving the p-TSA derivatives: first dissolution test, amount for a 3M solution in 0.5 mL, up to 15000 μL; for solubility: thermodynamic from solid
Procedure: Each of the powder of p-TSA derivatives was duplicated, placed in each 15 mL centrifuge tube, followed by adding 200 μL DMSO or 200 μL water and shaking for 10 to 20 seconds for dissolution observation. If the powder was not dissolved, additional DMSO or water was added, and then the mixture was shaken. The tube was left to stand for 10 minutes for observation if the powder was still not dissolved after adding 1 mL DMSO or 1 mL water. If the powder was still not dissolved after adding 5 mL DMSO or 5 mL water, additional 1 mL DMSO or 1 mL water was added, and then the mixture was shaken for 30 seconds. If the powder was still not dissolved after adding 10 mL DMSO or 10 mL water, the tube was left to stand for 12 to 16 hours and observed on the next day. DMSO or water was added into the tube having the undissolved p-TSA derivatives up to 15 mL, followed by shaking for 30 minutes for observation.

[4] = Homo sapiens, NCI-H460, 48 h, derivative dissolved in DMSO, read-out: IC50 of H460 in DMSO
[5] = Homo sapiens, Hep3B, 48 h, derivative dissolved in DMSO, read-out: IC50 of Hep3B in DMSO
[6] = Homo sapiens, NCI-H460, 48 h, derivative dissolved in water, read-out: IC50 of H460 in water
[7] = Homo sapiens, Hep3B, 48 h, derivative dissolved in water, read-out: IC50 of Hep3B in water
[8] = derivative dissolved in DMSO, read-out: IC50 of H460 in DMSO
[9] = derivative dissolved in DMSO, read-out: IC50 of Hep3B in DMSO
[10] = DMSO, organic solvent or mixture

IC50 [1, 4]	IC50 [2, 5]	Total volume of DMSO for dissolving the p-TSA derivatives ([3]; DMSO)	Total volume of water for dissolving the p-TSA derivatives ([3]; water)	IC50 [1, 6]	IC50 [2, 7]	IC50 [1, 8]	IC50 [2, 9]	solubility [3, 10]	solubility ([3]; water)	Structure (SMILES)	Solubility in DMSO ([3]; DMSO)	Solubility in water ([3]; water)
1.42 mM	1.76 mM	500 µL	insoluble in 15000 μL	–	–	–	–	–	–	Cc1ccc(S(=O)(=O)N2CCC[C@H]2CO)cc1 [PTSA033]	–	–
2.61 mM	2.65 mM	490 µL	10000 µL	> 1 mM	> 1 mM	–	–	–	–	Cc1ccc(S(=O)(=O)NCCO)cc1 [PTSA020]	–	–
2.58 mM	3.62 mM	880 µL	insoluble in 15000 μL	–	–	–	–	–	–	Cc1ccc(S(=O)(=O)N2CC(CO)C2)cc1 [PTSA069]	–	–
–	–	15000 µL	2500 µL	0.691 mM	0.77 mM	–	–	–	–	Cc1ccc(S(=O)(=O)N2CCC(N)CC2)cc1.Cl [PTSA053]	–	–
1.82 mM	1.41 mM	1500 µL	1000 µL	1.75 mM	1.44 mM	–	–	–	–	Cc1ccc(S(=O)(=O)NCCN(C)C)cc1.Cl [PTSA051]	–	–
1.97 mM	3.05 mM	500 µL	insoluble in 15000 μL	–	–	–	–	–	–	Cc1ccc(S(=O)(=O)NC(CO)CO)cc1 [PTSA029]	–	–
1.27 mM	1.25 mM	4000 µL	4500 µL	1.39 mM	1.3 mM	–	–	–	–	Cc1ccc(S(=O)(=O)N2CC(CN)C2)cc1.Cl [PTSA068]	–	–
> 2 mM	> 2 mM	4000 µL	insoluble in 15000 μL	–	–	–	–	–	–	Cc1ccc(S(=O)(=O)N2CC3(COC3)C2)cc1 [PTSA041]	–	–
1.17 mM	0.935 mM	740 µL	insoluble in 15000 μL	–	–	–	–	–	–	Cc1ccc(S(=O)(=O)NCC2CCNCC2)cc1.Cl [PTSA054]	–	–
5.82 mM	4.59 mM	610 µL	insoluble in 15000 μL	–	–	–	–	–	–	CCOC(=O)NS(=O)(=O)c1ccc(C)cc1 [PTSA014]	–	–
1.04 mM	1.02 mM	1500 µL	insoluble in 15000 μL	–	–	–	–	–	–	Cc1ccc(S(=O)(=O)N2CC(C(=O)NN)C2)cc1 [PTSA071]	–	–
0.906 mM	0.919 mM	2000 µL	5000 µL	1.09 mM	0.954 mM	–	–	–	–	Cc1ccc(S(=O)(=O)NC2CCNCC2)cc1.Cl [PTSA052]	–	–
> 10 mM	> 10 mM	845 µL	insoluble in 15000 μL	–	–	–	–	–	–	Cc1ccc(S(=O)(=O)N[C@@H](CO)C(=O)O)cc1 [PTSA046]	–	–
0.141 mM	0.137 mM	4000 µL	insoluble in 15000 μL	–	–	–	–	143 mg/mL	< 50 mg/mL	Cc1ccc(S(=O)(=O)NC2CCN(Cc3ccccc3)CC2)cc1.Cl [PTSA052i]	–	–
> 3 mM	> 3 mM	2000 µL	insoluble in 15000 μL	–	–	–	–	–	–	Cc1ccc(S(=O)(=O)NC(=O)NS(=O)(=O)c2ccc(C)cc2)cc1 [PTSA017]	–	–
> 3 mM	> 3 mM	2000 µL	insoluble in 15000 μL	–	–	–	–	–	–	Cc1ccc(S(=O)(=O)N[C@@H](C)C(=O)O)cc1 [PTSA045]	–	–
5.49 mM	4.56 mM	560 µL	insoluble in 15000 μL	–	–	–	–	–	–	COC(=O)NS(=O)(=O)c1ccc(C)cc1 [PTSA011]	–	–

IC50 [1, 4]	IC50 [2, 5]	Total volume of DMSO for dissolving the p-TSA derivatives ([3]; DMSO)	Total volume of water for dissolving the p-TSA derivatives ([3]; water)	IC50 [1, 6]	IC50 [2, 7]	IC50 [1, 8]	IC50 [2, 9]	solubility [3, 10]	solubility ([3]; water)	Structure (SMILES)	Solubility in DMSO ([3]; DMSO)	Solubility in water ([3]; water)
> 0.713 mM	> 0.713 mM	750 µL	insoluble in 15000 μL	–	–	–	–	–	–	Cc1ccc(S(=O)(=O)N2CC(F)(F)C2)cc1 [PTSA064]	–	–
> 1.12 mM	> 1.12 mM	4500 µL	insoluble in 15000 μL	–	–	–	–	–	–	CON=C1CN(S(=O)(=O)c2ccc(C)cc2)C1 [PTSA072]	–	–
–	–	680 µL	500 µL	> 5 mM	–	6.11 mM	7.5 mM	–	–	COC(=O)NS(=O)(=O)c1ccc(C)cc1 [PTSA012]	–	–
0.617 mM	0.596 mM	2000 µL	3000 µL	0.651 mM	0.61 mM	–	–	229 mg/mL	152 mg/mL	Cc1ccc(S(=O)(=O)N2CCC(CN)CC2)cc1.Cl [PTSA055]	–	–
–	–	510 µL	insoluble in 15000 μL	–	–	7.72 mM	> 9 mM	–	–	CC(=O)NS(=O)(=O)c1ccc(C)cc1 [PTSA001]	–	–
2.83 mM	2.28 mM	490 µL	insoluble in 15000 μL	–	–	–	–	–	–	Cc1ccc(S(=O)(=O)N2CC[C@@H](O)C2)cc1 [PTSA035]	–	–
–	–	590 µL	insoluble in 15000 μL	–	–	–	–	–	–	Cc1ccc(S(=O)(=O)NCC(F)(F)F)cc1 [PTSA050]	–	–
2.89 mM	2.65 mM	500 µL	insoluble in 15000 μL	–	–	–	–	–	–	Cc1ccc(S(=O)(=O)NC[C@H](C)O)cc1 [PTSA023]	–	–
4.16 mM	3.74 mM	500 µL	insoluble in 15000 μL	–	–	–	–	–	–	Cc1ccc(S(=O)(=O)NCC2(CO)COC2)cc1 [PTSA039]	–	–
–	–	815 µL	500 µL	4.96 mM	–	4.79 mM	5.77 mM	–	–	CCOC(=O)NS(=O)(=O)c1ccc(C)cc1 [PTSA015]	–	–
3.15 mM	3.54 mM	560 µL	insoluble in 15000 μL	–	–	–	–	–	–	Cc1ccc(S(=O)(=O)NC(C)CO)cc1 (centres unmarked) [PTSA025]	–	–
> 3 mM	> 3 mM	2000 µL	10000 µL	> 3 mM	> 3 mM	–	–	–	–	Cc1ccc(S(=O)(=O)NCCS(=O)(=O)O)cc1 [PTSA048]	–	–
3.65 mM	4.72 mM	505 µL	insoluble in 15000 μL	–	–	–	–	–	–	Cc1ccc(S(=O)(=O)NCCOCCO)cc1 [PTSA022]	–	–
3.31 mM	4.21 mM	700 µL	10000 µL	> 1 mM	> 1 mM	–	–	–	–	Cc1ccc(S(=O)(=O)NC(CO)(CO)CO)cc1 [PTSA031]	–	–
1.5 mM	1.78 mM	505 µL	insoluble in 15000 μL	–	–	–	–	–	–	Cc1ccc(S(=O)(=O)N2CCCC2CO)cc1 (centres unmarked) [PTSA034]	–	–
> 3 mM	> 3 mM	2000 µL	2500 µL	> 3 mM	> 3 mM	–	–	–	–	Cc1ccc(S(=O)(=O)N2CCCC2C(=O)O)cc1 (centres unmarked) [PTSA047]	–	–
–	–	850 µL	insoluble in 15000 μL	–	–	–	–	–	–	Cc1ccc(S(=O)(=O)N2CC(=NO)C2)cc1 [PTSA070]	–	–

Structure (SMILES)	IC50 [1, 4]	IC50 [2, 5]	Total volume of DMSO for dissolving the p-TSA derivatives ([3]; DMSO)	Total volume of water for dissolving the p-TSA derivatives ([3]; water)	IC50 [1, 6]	IC50 [2, 7]	IC50 [1, 8]	IC50 [2, 9]	solubility [3, 10]	solubility ([3]; water)	Solubility in DMSO ([3]; DMSO)	Solubility in water ([3]; water)
Cc1ccc(S(N)(=O)=O)cc1 [p-TSA, Toluene sulfonamide, reference compound]	–	–	–	–	–	–	3.72 ± 0.146 mM	3.73 ± 0.274 mM	–	–	785.95 mg/mL (≈ 4590 mM)	<50 mg/mL
